Measured values: US11040981B2, “Pyrrolotriazine compounds and methods of inhibiting TAM kinases” (Syros Pharmaceuticals, Inc., priority 2017, dated 2021)

Key:
FLT3 = target: T1, FLT3 (Homo sapiens, UniProt P36888); assay: TR-FRET kinase activity assay, FLT3; assay type: biochemical; conditions: ATP at Km, 60 minutes
T1 sequence (P36888 27-993): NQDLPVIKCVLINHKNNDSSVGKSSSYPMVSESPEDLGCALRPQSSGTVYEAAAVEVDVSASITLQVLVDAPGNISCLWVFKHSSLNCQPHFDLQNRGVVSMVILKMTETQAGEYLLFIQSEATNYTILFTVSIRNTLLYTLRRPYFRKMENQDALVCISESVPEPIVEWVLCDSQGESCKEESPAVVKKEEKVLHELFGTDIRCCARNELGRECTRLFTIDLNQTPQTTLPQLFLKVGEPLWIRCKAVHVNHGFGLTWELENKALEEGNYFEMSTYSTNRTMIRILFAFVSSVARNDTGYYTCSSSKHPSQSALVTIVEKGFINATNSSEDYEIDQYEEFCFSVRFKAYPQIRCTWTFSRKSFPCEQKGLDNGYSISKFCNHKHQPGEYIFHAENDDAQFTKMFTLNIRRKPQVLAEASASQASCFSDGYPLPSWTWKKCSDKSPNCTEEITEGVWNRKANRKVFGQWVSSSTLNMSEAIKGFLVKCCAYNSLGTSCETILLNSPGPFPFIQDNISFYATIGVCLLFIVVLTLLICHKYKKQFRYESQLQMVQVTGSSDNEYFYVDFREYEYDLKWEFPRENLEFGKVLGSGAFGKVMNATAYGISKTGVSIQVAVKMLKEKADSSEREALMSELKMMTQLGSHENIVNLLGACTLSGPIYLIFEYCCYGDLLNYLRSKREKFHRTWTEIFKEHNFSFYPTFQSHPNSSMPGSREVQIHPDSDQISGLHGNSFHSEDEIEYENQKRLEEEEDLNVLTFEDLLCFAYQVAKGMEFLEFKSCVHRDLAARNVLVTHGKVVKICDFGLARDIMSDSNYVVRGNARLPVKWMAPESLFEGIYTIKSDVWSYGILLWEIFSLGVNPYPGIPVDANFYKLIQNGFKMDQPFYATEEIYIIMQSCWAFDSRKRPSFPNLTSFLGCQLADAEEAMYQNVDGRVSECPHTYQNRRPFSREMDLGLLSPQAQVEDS
How it was run: (§1)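 Each kinase phosphorylated a fluorescent-labelled tyrosine peptide in 50 mM HEPES pH 7.5, 10 mM MgCl2, 1 mM EGTA, 0.01% Brij 35, 1 mM DTT at RT, with ATP at Km for that enzyme. After 60 min, EDTA quench and Eu-anti-phosphotyrosine antibody (30 min, dark); IC50 from TR-FRET decrease.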

AXL = target: T2, AXL (Homo sapiens, UniProt P30530); assay: TR-FRET kinase activity assay, AXL; assay type: biochemical; conditions: ATP at Km, 60 minutes
T2 sequence (P30530 26-894): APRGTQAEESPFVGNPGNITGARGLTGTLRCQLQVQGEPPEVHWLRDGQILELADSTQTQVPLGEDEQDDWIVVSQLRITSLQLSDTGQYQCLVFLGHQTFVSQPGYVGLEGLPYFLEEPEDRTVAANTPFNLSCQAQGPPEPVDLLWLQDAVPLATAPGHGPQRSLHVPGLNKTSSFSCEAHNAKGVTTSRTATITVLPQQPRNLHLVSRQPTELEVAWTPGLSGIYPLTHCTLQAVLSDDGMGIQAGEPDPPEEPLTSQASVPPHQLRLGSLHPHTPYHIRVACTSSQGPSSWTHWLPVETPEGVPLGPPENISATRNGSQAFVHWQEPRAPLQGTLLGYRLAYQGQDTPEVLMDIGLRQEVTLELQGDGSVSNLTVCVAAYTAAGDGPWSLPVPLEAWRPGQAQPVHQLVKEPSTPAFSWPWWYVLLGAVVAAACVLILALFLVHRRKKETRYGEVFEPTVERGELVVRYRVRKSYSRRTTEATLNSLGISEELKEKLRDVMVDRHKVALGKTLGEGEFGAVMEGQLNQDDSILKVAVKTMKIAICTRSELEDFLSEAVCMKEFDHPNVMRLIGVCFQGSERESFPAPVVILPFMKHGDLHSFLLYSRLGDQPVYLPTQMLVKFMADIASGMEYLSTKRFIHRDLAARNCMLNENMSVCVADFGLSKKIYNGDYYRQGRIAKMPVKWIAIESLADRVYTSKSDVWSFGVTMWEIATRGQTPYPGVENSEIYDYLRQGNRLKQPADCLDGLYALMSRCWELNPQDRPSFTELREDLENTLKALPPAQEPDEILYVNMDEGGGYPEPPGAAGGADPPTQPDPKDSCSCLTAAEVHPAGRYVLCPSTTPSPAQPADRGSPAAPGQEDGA
How it was run: as §1

Row | SMILES | IC50 (FLT3) [nM] | IC50 (AXL) [nM]
1 | COC[C@H](C)Nc1ncc2c(-c3cnn(C(C)(C)c4ncc(C)o4)c3)cc(C3CCC(O)CC3)n2n1 (stereo partly drawn) [Compound 628] | 1000 to 10000 | ≤ 100
2 | [2H]C([2H])([2H])OCC(C)Nc1ncc2c(-c3ccnc(N4CCOCC4)c3)cc(C3CCC(O)CC3)n2n1 (stereo not drawn) [Compound 629] | 100 to 1000 | ≤ 100
3 | [2H]C([2H])([2H])OCC(C)Nc1ncc2c(-c3cnn(C4COC4)c3)cc(C3CCC(O)CC3)n2n1 (stereo not drawn) [Compound 630] | 100 to 1000 | ≤ 100
4 | COC[C@H](C)Nc1ncc2c(-c3cnn(C(C)(C)c4nnc(N5CCOCC5)o4)c3)cc(C3CCC(O)CC3)n2n1 (stereo partly drawn) [Compound 631] | 1000 to 10000 | ≤ 100
5 | COC[C@H](C)Nc1ncc2c(-c3ccnc(N4CC(C)(O)C4)c3)cc(C3CCC(O)CC3)n2n1 (stereo partly drawn) [Compound 632] | 100 to 1000 | ≤ 100
6 | COC[C@H](C)Nc1ncc2c(-c3ccnc(N4CCC(C)(O)C4)c3)cc(C3CCC(O)CC3)n2n1 (stereo partly drawn) [Compound 633] | 100 to 1000 | ≤ 100
